# Measurements: US12479840B2, “HMG-CoA reductase degradation inducing compound” (Uppthera, priority 2020, dated 2025)
# Target: T1, HMG-CoA reductase (Homo sapiens, UniProt P04035)
# T1 construct: endogenous in cells; host or cells: HepG2 (Korea Cell Line Bank)
# T1 sequence (P04035 1-888): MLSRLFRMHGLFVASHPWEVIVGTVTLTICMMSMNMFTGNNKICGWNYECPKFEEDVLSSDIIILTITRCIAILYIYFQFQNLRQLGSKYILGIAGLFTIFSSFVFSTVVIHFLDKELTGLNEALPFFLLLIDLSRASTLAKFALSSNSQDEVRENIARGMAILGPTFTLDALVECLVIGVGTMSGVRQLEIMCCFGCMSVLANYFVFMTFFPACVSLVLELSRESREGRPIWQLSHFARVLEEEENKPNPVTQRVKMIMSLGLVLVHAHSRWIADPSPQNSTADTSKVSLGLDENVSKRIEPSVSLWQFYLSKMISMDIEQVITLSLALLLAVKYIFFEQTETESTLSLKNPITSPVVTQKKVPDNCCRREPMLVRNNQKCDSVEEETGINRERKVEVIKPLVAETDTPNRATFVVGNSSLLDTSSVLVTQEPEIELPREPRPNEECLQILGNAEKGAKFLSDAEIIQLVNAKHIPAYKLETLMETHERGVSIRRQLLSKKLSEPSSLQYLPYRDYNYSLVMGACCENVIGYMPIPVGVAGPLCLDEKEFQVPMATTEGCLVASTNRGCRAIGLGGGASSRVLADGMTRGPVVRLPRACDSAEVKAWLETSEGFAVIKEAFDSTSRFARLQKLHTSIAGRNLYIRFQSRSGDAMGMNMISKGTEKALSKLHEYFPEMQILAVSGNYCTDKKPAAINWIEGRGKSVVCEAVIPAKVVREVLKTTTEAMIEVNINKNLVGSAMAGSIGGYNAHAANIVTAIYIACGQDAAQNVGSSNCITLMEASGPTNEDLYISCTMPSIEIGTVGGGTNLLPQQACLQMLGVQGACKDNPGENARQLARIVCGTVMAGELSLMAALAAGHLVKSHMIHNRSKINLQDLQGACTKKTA
# Assay: HMG-CoA reductase (HMGCR) degradation in HepG2 cells by western blotting
# Assay type: cell-based
# Settings: treated for 18 hours, ratio of HMG-CoA reductase to GAPDH, read-out: DC50
# Protocol: HepG2, a human liver cancer cell line, was purchased from the Korea Cell Line Bank (KCLB), Seoul, Korea. The passage in cell culture was maintained at P105 to P110.
# The compounds of the present invention were completely dissolved in DMSO and used in the experiment. 2×10^5 cells were seeded for each well of a 12-well plate (SPL), and the cells were cultured in the culture medium in a total volume of 2 ml. Each of the compounds of the present invention and comparative compounds was diluted three folds from the highest concentration of 3 μM to the lowest concentration in 10 points and treated for 18 hours.
# Each of the compounds the present invention and comparative compounds was diluted three folds from the highest concentration of 3 μM to the lowest concentration of […] in 10 points and was treated for 18 hours.
# For SDS-PAGE and Western blotting, 1×RIPA lysis buffer (Rockland, Cat. No. MB-030-0050; Lot no. 39751), 100× Protease Inhibitor Cocktail (Quartett, Cat. No. PPI1015; Lot no. PCO50038424), Pierce™ BCA protein assay kit (ThermoScientific, Cat. No. 23225; Lot no. UC276876), albumin standard (ThermoScientific, Cat. No. 23209; Lot no. UB269561), 4-15% Mini-PROTEAN TGX stain-free gel (Bio-rad, Cat. No. 4568085; Lot no. L007041B), 10× Tris/Glycine/SDS buffer (Bio-rad, Cat. No. 1610732; Lot no. 10000044375B); 10×TBS (Bio-rad, Cat. No. 1706435; Lot no. 1000045140B), 10% Tween 20 (Cat. No. 1610781; Lot no. L004152B), Color protein standard broad range (NEB, Cat. No. P7719S; Lot no. 10040349), 4× Laemmli sample buffer (Bio-rad, Cat. No. 1610747; Lot no. L004133B), β-mercaptoethanol (Sigma-Aldrich, Cat. No. M3148; Lot no. 60-24-2), SuperBlock™ T20 (TBS) blocking buffer (ThermoScientific, Cat. No. 37536; Lot no. UC282578), 1M sodium azide solution (Sigma-Aldrich, Cat. No. 08591-1 mL-F; Lot no. BCBV4989), α-Rabbit pAb to Ms IgG (abcam, Cat. No. ab97046; Lot no. GR3252115-1), α-Goat pAb to Rb IgG (CST, Cat. No. 7074S; Lot no. 28), α-GAPDH (abcam, Cat. No. ab8245), α-HMGCR (GeneTex, Cat. No. GTX54088; Lot no. 821903509), ECL™ Prime western blotting reagents (GE Healthcare, Cat. No. RPN2232; Lot no. 17001655), Ponceau S solution (Sigma-Aldrich, Cat. No. P7170; Lot no. SLBV4112), Difco™ Skim milk (BD, Cat. No. 232100; Lot no. 8346795), and iBlot® 2 NC Regular stacks (Invitrogen, Cat. No. IB23001; Lot no. 2NR110619-02), were used.
# For cell harvesting, the cells were first separated from the plate using trypsin and then washed with the medium and PBS. Specifically, the medium was suctioned off and washed with 1 mL of PBS, and PBS was suctioned off. The cells were treated with 0.5 mL TrypLE™ Express at 37° C. for 7 minutes to separate the cells, and then 0.5 mL of complete medium was added to collect 1 mL of cell culture solution. Then, 1 mL of the cell collection solution was centrifuged at 8,000 rpm for 120 seconds, and the supernatant was removed. After washing with 0.2 mL of PBS, the PBS was removed.
# For cell lysis, a lysis buffer was added and cell debris was removed to obtain a cell lysate. Specifically, the cells were treated with 70 μL of 1×RIPA buffer containing a protease inhibitor and incubated for 30 minutes on ice. Then, the cells were centrifuged at 4° C. and 15,000 rpm for 10 minutes to obtain a cell lysate.
# Then, a standard curve was obtained using the BCA assay, and the protein mass in the lysate was quantified by substituting the curve. The mixture was incubated at 37° C. for 30 minutes using 20 μL of standard or sample solution, and 200 μL of BCA or Bradford solution, and measured at 562 nm absorbance. Samples were prepared by adding 4× sample buffer so that the quantity of protein added to each well was 15 μg.
# Sodium dodecyl sulfate polyacrylamide gel electrophoresis (SDS-PAGE) was performed by setting a running time of 100 minutes at 120 V on a 4-15% Mini-PROTEAN TGX stain-free gel (15 well). Transferring was performed on iBlot® 2 NC Mini stacks at P0 mode of the dry blotting system. […]
row,DC50,SMILES
1,< 0.05 µM,"Cc1ncsc1-c1ccc(CNC(=O)[C@@H]2C[C@@H](O)CN2C(=O)[C@@H](NC(=O)COCCOCCNC(=O)CCC(C)(C)C(=O)O[C@H]2C[C@@H](C)C=C3C=C[C@H](C)[C@H](CC[C@@H]4C[C@@H](O)CC(=O)O4)[C@H]32)C(C)(C)C)cc1 [Compound 9, (S)-(1S,3R,7S,8S,8aR)-8-(2-((2R,4R)-4-hydroxy-6-oxotetrahydro-2H-pyran-2-yl)ethyl)-3,7-dimethyl-1,2,3,7,8,8a-hexahydronaphthalen-1-yl 3-((2S,4R)-4-hydroxy-2-((4-(4-methylthiazol-5-yl)benzyl)carbamoyl)pyrrolidine-1-carbonyl)-2,2,17,17-tetramethyl-5,14-dioxo-7,10-dioxa-4,13-diazaoctadecan-18-oate]"
2,< 0.05 µM,Cc1ncsc1-c1ccc(CNC(=O)[C@@H]2C[C@@H](O)CN2C(=O)[C@@H](NC(=O)COCCOCCOCCNC(=O)CCC(C)(C)C(=O)O[C@H]2C[C@@H](C)C=C3C=C[C@H](C)[C@H](CC[C@@H]4C[C@@H](O)CC(=O)O4)[C@H]32)C(C)(C)C)cc1 [Compound 10]
3,< 0.05 µM,"Cc1ncsc1-c1ccc(CNC(=O)[C@@H]2C[C@@H](O)CN2C(=O)[C@@H](NC(=O)COCCOCCOCCOCCNC(=O)CCC(C)(C)C(=O)O[C@H]2C[C@@H](C)C=C3C=C[C@H](C)[C@H](CC[C@@H]4C[C@@H](O)CC(=O)O4)[C@H]32)C(C)(C)C)cc1 [Compound 11, (S)-(1S,3R,7S,8S,8aR)-8-(2-((2R,4R)-4-hydroxy-6-oxotetrahydro-2H-pyran-2-yl)ethyl)-3,7-dimethyl-1,2,3,7,8,8a-hexahydronaphthalen-1-yl 3-((2S,4R)-4-hydroxy-2-((4-(4-methylthiazol-5-yl)benzyl)carbamoyl)pyrrolidine-1-carbonyl)-2,2,23,23-tetramethyl-5,20-dioxo-7,10,13,16-tetraoxa-4,19-diazatetracosan-24-oate]"
4,< 0.05 µM,"Cc1ncsc1-c1ccc(CNC(=O)[C@@H]2C[C@@H](O)CN2C(=O)[C@@H](NC(=O)COCCOCCOCCOCCOCCNC(=O)CCC(C)(C)C(=O)O[C@H]2C[C@@H](C)C=C3C=C[C@H](C)[C@H](CC[C@@H]4C[C@@H](O)CC(=O)O4)[C@H]32)C(C)(C)C)cc1 [Compound 12, (S)-(1S,3R,7S,8S,8aR)-8-(2-((2R,4R)-4-hydroxy-6-oxotetrahydro-2H-pyran-2-yl)ethyl)-3,7-dimethyl-1,2,3,7,8,8a-hexahydronaphthalen-1-yl 3-((2S,4R)-4-hydroxy-2-((4-(4-methylthiazol-5-yl)benzyl)carbamoyl)pyrrolidine-1-carbonyl)-2,2,26,26-tetramethyl-5,23-dioxo-7,10,13,16,19-pentaoxa-4,22-diazaheptacosan-27-oate]"
5,> 0.5 µM,"C[C@H]1C=C2C=C[C@H](C)[C@H](CC[C@H]3C[C@H](O)CC(=O)O3)[C@H]2[C@@H](OC(=O)NCCOCCOCCOCC(=O)NCC(C)(C)C)C1 [Compound 13, (1S,3R,7S,8S,8aR)-8-(2-((2S,4S)-4-hydroxy-6-oxotetrahydro-2H-pyran-2-yl)ethyl)-3,7-dimethyl-1,2,3,7,8,8a-hexahydronaphthalen-1-yl (14,14-dimethyl-11-oxo-3,6,9-trioxa-12-azapentadecyl) carbamate]"
6,0.05 to 0.5 µM,"Cc1ncsc1-c1ccc(CNC(=O)[C@@H]2C[C@@H](O)CN2C(=O)[C@@H](NC(=O)COCCNC(=O)O[C@H]2C[C@@H](C)C=C3C=C[C@H](C)[C@H](CC[C@@H]4C[C@@H](O)CC(=O)O4)[C@H]32)C(C)(C)C)cc1 [Compound 14, (1S,3R,7S,8S,8aR)-8-(2-((2R,4R)-4-hydroxy-6-oxotetrahydro-2H-pyran-2-yl)ethyl)-3,7-dimethyl-1,2,3,7,8,8a-hexahydronaphthalen-1-yl (2-(2-(((S)-1-((2S,4R)-4-hydroxy-2-((4-(4-methylthiazol-5-yl)benzyl)carbamoyl)pyrrolidin-1-yl)-3,3-dimethyl-1-oxobutan-2-yl)amino)-2-oxoethoxy)ethyl)carbamate]"
